Measurements reported in patent US10774065B2, “1-pyridazin-/triazin-3-yl-piper(-azine)/idine/pyrolidine derivatives and compositions thereof for inhibiting the activity of SHP2” (NOVARTIS AG, priority 2014, dated 2020).

Target: SHP2 (Homo sapiens (Human), UniProt Q06124)
Assay: SHP2 Allosteric Inhibition Assay (DiFMUP prompt fluorescence)
Assay type: biochemical
Settings: 0.5 nM SHP2 activated with 0.5 μM peptide IRS1_pY1172(dPEG8)pY1222; substrate DiFMUP; 25° C.

Sequence of SHP2 (Q06124 whole entry): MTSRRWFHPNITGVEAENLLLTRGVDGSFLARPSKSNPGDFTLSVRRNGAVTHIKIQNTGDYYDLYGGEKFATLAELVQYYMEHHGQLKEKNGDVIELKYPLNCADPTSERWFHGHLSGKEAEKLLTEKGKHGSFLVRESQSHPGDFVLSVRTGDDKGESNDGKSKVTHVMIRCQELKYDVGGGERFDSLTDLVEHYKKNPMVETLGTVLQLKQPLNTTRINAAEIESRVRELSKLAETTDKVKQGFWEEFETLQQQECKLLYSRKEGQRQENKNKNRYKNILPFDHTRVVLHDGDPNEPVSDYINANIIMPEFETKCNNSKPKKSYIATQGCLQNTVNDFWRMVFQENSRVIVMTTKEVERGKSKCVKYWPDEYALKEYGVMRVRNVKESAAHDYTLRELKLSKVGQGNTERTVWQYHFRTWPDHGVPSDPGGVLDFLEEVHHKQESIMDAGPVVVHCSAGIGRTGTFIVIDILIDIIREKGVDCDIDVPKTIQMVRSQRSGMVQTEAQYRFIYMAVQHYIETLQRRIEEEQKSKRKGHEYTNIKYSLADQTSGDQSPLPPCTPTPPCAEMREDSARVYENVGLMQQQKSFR

**Q.** C[C@]1(CN)CCN(c2cnc(-c3cccc(Cl)c3Cl)c(N)n2)C[C@H]1O (single isomer, unassigned) [11 P1] was tested. Which IC50 did it give?
**A.** Its IC50 is 38 nM.

**Q.** With C[C@]1(CN)CCN(c2cnc(-c3cccc(Cl)c3Cl)c(N)n2)C[C@H]1O (single isomer, unassigned) [11 P2] as the compound, how does the IC50 read?
**A.** Its IC50 is 164 nM.
